Measurements as given in PubChem BioAssay AID2060330 (Molecular Pharmacology Branch, DTP, NCI, 2025).

Tested on: LG0703-F948-PDC spheroids with HUVEC/MSC, viability
Assay: Anticancer human tumor LG0703-F948-PDC patient-derived lung adenocarcinoma cell line growth inhibition [IpAb]
Conditions: for IC50: curve of first compound; for viability, T/C: stronger effect = lower value
In short: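 Spheroids of 60% malignant cells, 25% HUVEC and 15% MSC were exposed to targeted agents combined with ipatasertib or abemaciclib. Doses started at or near clinical Cmax (10 microM when unknown) and fell in half-log steps.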

[1] = second compound 0.1 µM, first compound 0.0316 µM
[2] = second compound 0.1 µM, first compound 0.1 µM
[3] = second compound 0.1 µM, first compound 0.316 µM
[4] = second compound 0.1 µM, first compound 1 µM
[5] = second compound 0.1 µM, first compound 3.16 µM
[6] = second compound 0.1 µM, first compound 10 µM
[7] = second compound 0.316 µM, first compound 0.0316 µM
[8] = second compound 0.316 µM, first compound 0.1 µM
[9] = second compound 0.316 µM, first compound 0.316 µM
[10] = second compound 0.316 µM, first compound 1 µM
[11] = second compound 0.316 µM, first compound 3.16 µM
[12] = second compound 0.316 µM, first compound 10 µM
[13] = second compound 1 µM, first compound 0.0316 µM
[14] = second compound 1 µM, first compound 0.1 µM
[15] = second compound 1 µM, first compound 0.316 µM
[16] = second compound 1 µM, first compound 1 µM
[17] = second compound 1 µM, first compound 3.16 µM
[18] = second compound 1 µM, first compound 10 µM
[19] = second compound 3.16 µM, first compound 0.0316 µM
[20] = second compound 3.16 µM, first compound 0.1 µM
[21] = second compound 3.16 µM, first compound 0.316 µM
[22] = second compound 3.16 µM, first compound 1 µM
[23] = second compound 3.16 µM, first compound 3.16 µM
[24] = second compound 3.16 µM, first compound 10 µM
[25] = second compound 10 µM, first compound 0.0316 µM
[26] = second compound 10 µM, first compound 0.1 µM
[27] = second compound 10 µM, first compound 0.316 µM
[28] = second compound 10 µM, first compound 1 µM
[29] = second compound 10 µM, first compound 3.16 µM
[30] = second compound 10 µM, first compound 10 µM
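Also: spheroids exposed to compounds for seven days before readout.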
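For viability, T/C in this document: T/C percent relative to DMSO vehicle wells set as 100% viability.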

Structure (SMILES) | IC50 (second compound 0.1 µM) [nM] | IC50 (second compound 0.316 µM) [nM] | IC50 (second compound 1 µM) [nM] | IC50 (second compound 3.16 µM) [nM] | IC50 (second compound 10 µM) [nM] | viability, T/C [1] [%] | viability, T/C [2] [%] | viability, T/C [3] [%] | viability, T/C [4] [%] | viability, T/C [5] [%] | viability, T/C [6] [%] | viability, T/C [7] [%] | viability, T/C [8] [%] | viability, T/C [9] [%] | viability, T/C [13] [%] | viability, T/C [14] [%] | viability, T/C [19] [%] | viability, T/C [20] [%] | viability, T/C [25] [%] | viability, T/C [26] [%] | also measured
Cn1ncc(Cl)c1-c1cc(C(=O)NC(CN)Cc2cccc(F)c2)sc1Cl (stereo not given) + CC(C)NCC(C(=O)N1CCN(c2ncnc3c2C(C)CC3O)CC1)c1ccc(Cl)cc1 | 714 | 925 | 522 | < 31.6 | < 31.6 | 75.9 | 75.1 | 53.7 | 53.4 | 15.4 | 0.11 | 60 | 57.1 | 53.8 | 54.7 | 50.5 | 41.2 | 44.9 | 41.8 | 42.1 | viability, T/C [10]: 50.2%; viability, T/C [11]: 18.7%; viability, T/C [12]: 0.1%; viability, T/C [15]: 49.4%; viability, T/C [16]: 48.1%; viability, T/C [17]: 11%; viability, T/C [18]: 0.1%; viability, T/C [21]: 43.7%; viability, T/C [22]: 40.5%; viability, T/C [23]: 18.9%; viability, T/C [24]: 0.1%; viability, T/C [27]: 35%; viability, T/C [28]: 39.3%; viability, T/C [29]: 9.68%; viability, T/C [30]: 0.15%
Cn1nccc1Nc1nccc(-c2ccn(C(CO)c3ccc(Cl)c(F)c3)c(=O)c2)n1 (stereo not given) + CC(C)NCC(C(=O)N1CCN(c2ncnc3c2C(C)CC3O)CC1)c1ccc(Cl)cc1 | 502 | 97 | < 31.6 | < 31.6 | < 31.6 | 67.3 | 66.3 | 49.8 | 39.7 | 50.3 | 37.6 | 64.7 | 49.4 | 36.5 | 45 | 39.8 | 38.2 | 33 | 32.5 | 22.6 | viability, T/C [10]: 28%; viability, T/C [11]: 32.5%; viability, T/C [12]: 27.1%; viability, T/C [15]: 21.7%; viability, T/C [16]: 15.3%; viability, T/C [17]: 12.3%; viability, T/C [18]: 16%; viability, T/C [21]: 16.4%; viability, T/C [22]: 9.61%; viability, T/C [23]: 9.49%; viability, T/C [24]: 5.88%; viability, T/C [27]: 29.5%; viability, T/C [28]: 6.93%; viability, T/C [29]: 4.16%; viability, T/C [30]: 3.23%
Cn1ncnc1[C@H]1c2n[nH]c(=O)c3cc(F)cc(c23)N[C@@H]1c1ccc(F)cc1 + CC(C)NCC(C(=O)N1CCN(c2ncnc3c2C(C)CC3O)CC1)c1ccc(Cl)cc1 | > 100 | > 100 | > 100 | < 0.316 | < 0.316 | 68.6 | 73.4 | – | – | – | – | 63.6 | 58.3 | – | 60.3 | 51.9 | 49.5 | 46.1 | 38 | 37.2 | viability, T/C (second compound 0.1 µM, first compound 0.000316 µM): 91.9%; viability, T/C (second compound 0.1 µM, first compound 0.001 µM): 79.1%; viability, T/C (second compound 0.1 µM, first compound 0.00316 µM): 79.2%; viability, T/C (second compound 0.1 µM, first compound 0.01 µM): 91.9%; viability, T/C (second compound 0.316 µM, first compound 0.000316 µM): 73.5%; viability, T/C (second compound 0.316 µM, first compound 0.001 µM): 67.9%; viability, T/C (second compound 0.316 µM, first compound 0.00316 µM): 59.8%; viability, T/C (second compound 0.316 µM, first compound 0.01 µM): 65.7%; viability, T/C (second compound 1 µM, first compound 0.000316 µM): 60.1%; viability, T/C (second compound 1 µM, first compound 0.001 µM): 51.4%; viability, T/C (second compound 1 µM, first compound 0.00316 µM): 51%; viability, T/C (second compound 1 µM, first compound 0.01 µM): 53.5%; viability, T/C (second compound 3.16 µM, first compound 0.000316 µM): 47%; viability, T/C (second compound 3.16 µM, first compound 0.001 µM): 40.3%; viability, T/C (second compound 3.16 µM, first compound 0.00316 µM): 45.9%; viability, T/C (second compound 3.16 µM, first compound 0.01 µM): 42.9%; viability, T/C (second compound 10 µM, first compound 0.000316 µM): 42.8%; viability, T/C (second compound 10 µM, first compound 0.001 µM): 44.4%; viability, T/C (second compound 10 µM, first compound 0.00316 µM): 37.7%; viability, T/C (second compound 10 µM, first compound 0.01 µM): 45.9%
